# Experimental data published in the kinase profiling compilation of Christmann-Franck et al. (2016).
# Experiments:
# Assay in all cases: radiometric filter-binding kinase assay, Kinase HotSpot
# Conditions in all cases: compound 0.5 µM; ATP 10 µM
# [1] = biological target: MAP2K2 (human) (UniProt P36507)
# [2] = biological target: RPS6KA2 KD1 KD2 (human) (UniProt Q15349)
# [3] = biological target: BRSK1 (human) (UniProt Q8TDC3)
# [4] = biological target: TAOK3 (human) (UniProt Q9H2K8)
# [5] = biological target: GSK3A (human) (UniProt P49840)
# [6] = biological target: NEK4 (human) (UniProt P51957)
# [7] = biological target: TEC (human) (UniProt P42680)
# [8] = biological target: BMX (human) (UniProt P51813)
# [9] = biological target: LIMK1 (human) (UniProt P53667)
# [10] = biological target: MAP3K8 (human) (UniProt P41279)
# [11] = biological target: SRPK2 (human) (UniProt P78362)
# [12] = biological target: PTK2B (human) (UniProt Q14289)
# [13] = biological target: PRKCZ (human) (UniProt Q05513)
# [14] = biological target: CDK5 CDK5R1 p25 (human) (UniProt Q00535+Q15078)
# [15] = biological target: EPHB4 (human) (UniProt P54760)
# [16] = biological target: NUAK2 (human) (UniProt Q9H093)
# [17] = biological target: PRKCG (human) (UniProt P05129)
# [18] = biological target: NEK11 (human) (UniProt Q8NG66)
# [19] = biological target: ZAP70 (human) (UniProt P43403)
# [20] = biological target: PAK1 (human) (UniProt Q13153)
# [21] = biological target: SRC (human) (UniProt P12931)
# [22] = biological target: SGK2 (human) (UniProt Q9HBY8)
# [23] = biological target: INSR (human) (UniProt P06213)
# [24] = biological target: AKT2 (human) (UniProt P31751)
# [25] = biological target: ULK2 (human) (UniProt Q8IYT8)
# [26] = biological target: MST4 (human) (UniProt Q9P289)
# [27] = biological target: DSTYK (human) (UniProt Q6XUX3)
# [28] = biological target: NTRK1 (human) (UniProt P04629)
# [29] = biological target: CLK4 (human) (UniProt Q9HAZ1)
# [30] = biological target: PTK6 (human) (UniProt Q13882)
# [31] = biological target: STK10 (human) (UniProt O94804)
# [32] = biological target: CDK1 CCNB1 (human) (UniProt P06493+P14635)
# [33] = biological target: GRK7 (human) (UniProt Q8WTQ7)
# [34] = biological target: EPHA4 (human) (UniProt P54764)
# [35] = biological target: PRKCI (human) (UniProt P41743)
# [36] = biological target: DAPK2 (human) (UniProt Q9UIK4)
# [37] = biological target: CSNK1D (human) (UniProt P48730)
# [38] = biological target: PDGFRB (human) (UniProt P09619)
# [39] = biological target: PTK2 (human) (UniProt Q05397)
# [40] = biological target: EPHB1 (human) (UniProt P54762)
# [41] = biological target: CAMK2D (human) (UniProt Q13557)
# [42] = biological target: LRRK2 (human) (UniProt Q5S007)
# SGK2 (human), sequence (Q9HBY8 whole entry, looked up): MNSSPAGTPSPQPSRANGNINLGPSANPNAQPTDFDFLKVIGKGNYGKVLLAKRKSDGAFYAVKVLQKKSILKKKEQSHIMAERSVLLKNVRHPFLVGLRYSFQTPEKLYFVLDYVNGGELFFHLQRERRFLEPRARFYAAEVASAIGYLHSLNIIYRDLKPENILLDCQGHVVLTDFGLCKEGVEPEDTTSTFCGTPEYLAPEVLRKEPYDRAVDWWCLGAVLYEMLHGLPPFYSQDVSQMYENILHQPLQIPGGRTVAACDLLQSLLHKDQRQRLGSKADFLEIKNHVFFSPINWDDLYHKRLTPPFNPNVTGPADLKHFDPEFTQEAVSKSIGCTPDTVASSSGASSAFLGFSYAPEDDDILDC
# CAMK2D (human), sequence (Q13557 whole entry, looked up): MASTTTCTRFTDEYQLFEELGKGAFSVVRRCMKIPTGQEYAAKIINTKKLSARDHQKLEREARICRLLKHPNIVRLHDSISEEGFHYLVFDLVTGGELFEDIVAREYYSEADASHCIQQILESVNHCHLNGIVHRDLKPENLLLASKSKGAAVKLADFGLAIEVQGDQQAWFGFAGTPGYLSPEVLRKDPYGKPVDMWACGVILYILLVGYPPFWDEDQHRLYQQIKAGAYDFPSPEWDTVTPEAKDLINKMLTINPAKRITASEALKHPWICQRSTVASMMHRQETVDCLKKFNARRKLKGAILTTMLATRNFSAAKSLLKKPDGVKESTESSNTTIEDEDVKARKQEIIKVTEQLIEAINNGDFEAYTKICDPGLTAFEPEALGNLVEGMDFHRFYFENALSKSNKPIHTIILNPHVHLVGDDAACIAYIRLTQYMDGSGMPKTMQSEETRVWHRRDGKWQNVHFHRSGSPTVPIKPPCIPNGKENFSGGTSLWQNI
# AKT2 (human), sequence (P31751 whole entry, looked up): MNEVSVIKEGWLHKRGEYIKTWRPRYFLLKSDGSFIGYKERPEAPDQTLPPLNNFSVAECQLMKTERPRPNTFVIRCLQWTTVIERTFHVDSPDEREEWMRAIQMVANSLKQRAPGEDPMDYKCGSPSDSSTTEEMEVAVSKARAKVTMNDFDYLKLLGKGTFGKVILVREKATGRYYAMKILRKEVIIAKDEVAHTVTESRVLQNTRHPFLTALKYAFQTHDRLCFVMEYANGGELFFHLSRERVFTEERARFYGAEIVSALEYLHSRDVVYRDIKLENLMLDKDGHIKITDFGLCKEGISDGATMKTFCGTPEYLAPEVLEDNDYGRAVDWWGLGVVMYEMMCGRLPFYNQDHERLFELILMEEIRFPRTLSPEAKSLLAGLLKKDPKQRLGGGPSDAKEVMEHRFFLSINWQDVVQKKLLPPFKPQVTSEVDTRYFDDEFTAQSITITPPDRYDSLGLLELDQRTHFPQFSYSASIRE
# INSR (human), sequence (P06213 whole entry, looked up): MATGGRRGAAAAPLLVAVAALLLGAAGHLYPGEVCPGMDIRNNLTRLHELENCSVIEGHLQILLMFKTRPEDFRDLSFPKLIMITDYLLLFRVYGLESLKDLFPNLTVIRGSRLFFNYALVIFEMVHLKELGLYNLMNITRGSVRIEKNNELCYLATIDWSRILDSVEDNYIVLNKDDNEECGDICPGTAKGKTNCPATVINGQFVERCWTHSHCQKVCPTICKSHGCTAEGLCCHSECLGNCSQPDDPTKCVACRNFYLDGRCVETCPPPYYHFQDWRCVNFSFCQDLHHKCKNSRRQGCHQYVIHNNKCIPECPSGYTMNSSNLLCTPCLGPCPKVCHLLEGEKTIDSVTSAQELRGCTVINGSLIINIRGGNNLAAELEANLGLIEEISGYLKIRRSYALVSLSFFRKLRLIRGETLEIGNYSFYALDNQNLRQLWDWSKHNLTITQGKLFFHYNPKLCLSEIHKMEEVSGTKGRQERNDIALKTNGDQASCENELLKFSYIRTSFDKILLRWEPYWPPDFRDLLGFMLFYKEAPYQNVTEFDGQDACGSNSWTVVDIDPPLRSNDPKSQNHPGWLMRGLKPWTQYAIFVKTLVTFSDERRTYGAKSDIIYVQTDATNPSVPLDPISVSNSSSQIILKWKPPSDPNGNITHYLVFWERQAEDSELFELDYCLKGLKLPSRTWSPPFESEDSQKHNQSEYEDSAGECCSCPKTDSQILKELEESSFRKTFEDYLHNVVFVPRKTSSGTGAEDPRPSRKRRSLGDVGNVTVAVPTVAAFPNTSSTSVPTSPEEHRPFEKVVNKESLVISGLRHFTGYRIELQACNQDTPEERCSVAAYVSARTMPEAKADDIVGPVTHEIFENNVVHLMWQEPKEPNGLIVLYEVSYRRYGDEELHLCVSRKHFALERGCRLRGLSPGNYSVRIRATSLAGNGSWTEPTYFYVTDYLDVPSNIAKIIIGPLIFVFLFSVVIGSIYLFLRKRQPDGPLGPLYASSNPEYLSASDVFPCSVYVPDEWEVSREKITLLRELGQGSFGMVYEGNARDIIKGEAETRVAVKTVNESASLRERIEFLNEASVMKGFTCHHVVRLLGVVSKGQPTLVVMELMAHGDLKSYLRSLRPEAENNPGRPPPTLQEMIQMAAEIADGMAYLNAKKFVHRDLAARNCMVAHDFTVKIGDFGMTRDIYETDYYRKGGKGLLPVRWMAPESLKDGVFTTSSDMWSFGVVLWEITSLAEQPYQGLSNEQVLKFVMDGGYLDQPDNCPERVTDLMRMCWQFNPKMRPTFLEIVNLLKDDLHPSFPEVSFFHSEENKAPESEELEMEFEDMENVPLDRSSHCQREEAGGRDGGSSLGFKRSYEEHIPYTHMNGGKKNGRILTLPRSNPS
# CDK5 CDK5R1 p25 (human), sequence (Q00535 whole entry, looked up): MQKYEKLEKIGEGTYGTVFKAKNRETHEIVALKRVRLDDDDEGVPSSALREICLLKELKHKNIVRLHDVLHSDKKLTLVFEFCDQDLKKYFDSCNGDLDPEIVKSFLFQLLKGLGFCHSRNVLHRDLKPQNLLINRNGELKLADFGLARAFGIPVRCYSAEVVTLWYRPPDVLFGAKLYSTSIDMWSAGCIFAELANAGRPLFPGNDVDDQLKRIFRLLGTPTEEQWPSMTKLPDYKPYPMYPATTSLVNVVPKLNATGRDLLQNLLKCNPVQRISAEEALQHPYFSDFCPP
# CDK5 CDK5R1 p25 (human), sequence (Q15078 whole entry, looked up): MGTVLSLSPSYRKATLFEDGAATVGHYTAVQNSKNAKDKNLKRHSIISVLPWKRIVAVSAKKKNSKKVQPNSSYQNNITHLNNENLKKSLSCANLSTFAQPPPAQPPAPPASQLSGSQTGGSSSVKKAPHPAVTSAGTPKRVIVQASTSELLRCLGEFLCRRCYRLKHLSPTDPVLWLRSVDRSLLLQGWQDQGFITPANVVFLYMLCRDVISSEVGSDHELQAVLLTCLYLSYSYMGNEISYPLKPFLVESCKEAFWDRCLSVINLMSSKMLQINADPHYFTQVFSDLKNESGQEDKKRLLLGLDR
# SRPK2 (human), sequence (P78362 whole entry, looked up): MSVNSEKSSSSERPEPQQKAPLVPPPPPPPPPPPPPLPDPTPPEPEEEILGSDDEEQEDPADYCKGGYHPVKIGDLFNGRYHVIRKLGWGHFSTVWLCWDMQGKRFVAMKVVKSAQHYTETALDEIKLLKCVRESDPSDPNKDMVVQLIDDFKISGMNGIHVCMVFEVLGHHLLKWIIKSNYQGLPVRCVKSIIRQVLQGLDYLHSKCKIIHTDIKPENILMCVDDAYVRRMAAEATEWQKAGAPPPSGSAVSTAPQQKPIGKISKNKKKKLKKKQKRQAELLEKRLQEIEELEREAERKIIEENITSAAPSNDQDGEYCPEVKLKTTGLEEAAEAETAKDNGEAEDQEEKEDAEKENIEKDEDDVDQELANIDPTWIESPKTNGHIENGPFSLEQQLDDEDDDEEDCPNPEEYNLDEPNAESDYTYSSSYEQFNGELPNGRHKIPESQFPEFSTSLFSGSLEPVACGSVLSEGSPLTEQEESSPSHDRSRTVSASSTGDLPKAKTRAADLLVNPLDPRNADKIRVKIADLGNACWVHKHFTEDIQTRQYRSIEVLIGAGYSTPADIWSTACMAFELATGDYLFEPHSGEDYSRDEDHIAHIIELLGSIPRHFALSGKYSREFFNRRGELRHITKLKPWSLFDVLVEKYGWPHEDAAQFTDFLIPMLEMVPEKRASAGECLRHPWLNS
# LIMK1 (human), sequence (P53667 whole entry, looked up): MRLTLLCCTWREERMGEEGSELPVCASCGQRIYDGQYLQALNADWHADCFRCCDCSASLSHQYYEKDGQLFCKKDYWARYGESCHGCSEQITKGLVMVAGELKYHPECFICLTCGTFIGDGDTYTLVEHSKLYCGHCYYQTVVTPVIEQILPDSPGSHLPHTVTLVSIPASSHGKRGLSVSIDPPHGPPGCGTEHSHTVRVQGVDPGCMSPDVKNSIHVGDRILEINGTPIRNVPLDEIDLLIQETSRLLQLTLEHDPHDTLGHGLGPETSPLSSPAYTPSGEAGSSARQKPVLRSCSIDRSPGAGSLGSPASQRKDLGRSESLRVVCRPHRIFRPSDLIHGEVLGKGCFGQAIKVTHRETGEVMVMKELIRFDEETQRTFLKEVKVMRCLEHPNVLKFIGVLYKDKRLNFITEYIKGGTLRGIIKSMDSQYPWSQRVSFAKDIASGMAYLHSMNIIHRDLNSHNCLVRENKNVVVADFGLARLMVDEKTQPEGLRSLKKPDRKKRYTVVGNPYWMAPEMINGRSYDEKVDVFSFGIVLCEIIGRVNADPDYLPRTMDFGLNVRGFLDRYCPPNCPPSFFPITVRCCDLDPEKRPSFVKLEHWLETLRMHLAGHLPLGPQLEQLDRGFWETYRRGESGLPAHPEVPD
structure (smiles),measurement,setting,value
O=C(Nc1cccc(Nc2cc(Nc3cccc(C(F)(F)F)c3)ncn2)c1)C1CC1,residual activity,[1],101%
same,residual activity,[2],102%
same,residual activity,[3],101%
same,residual activity,[4],98.7%
same,residual activity,[5],101%
same,residual activity,[6],90.6%
same,residual activity,[7],115%
same,residual activity,[8],93.7%
same,residual activity,[9],95.9%
same,residual activity,[10],98.4%
same,residual activity,[11],92%
same,residual activity,[12],89.6%
same,residual activity,[13],104%
same,residual activity,[14],99.5%
same,residual activity,[15],97.8%
same,residual activity,[16],103%
same,residual activity,[17],102%
same,residual activity,[18],94.3%
same,residual activity,[19],93%
same,residual activity,[20],96.6%
same,residual activity,[21],102%
same,residual activity,[22],99%
same,residual activity,[23],103%
same,residual activity,[24],103%
same,residual activity,[25],102%
same,residual activity,[26],98.9%
same,residual activity,[27],102%
same,residual activity,[28],99.6%
same,residual activity,[29],97.3%
same,residual activity,[30],98.4%
same,residual activity,[31],95.7%
same,residual activity,[32],96.4%
same,residual activity,[33],99%
same,residual activity,[34],96.5%
same,residual activity,[35],98.1%
same,residual activity,[36],99%
same,residual activity,[37],98.9%
same,residual activity,[38],101%
same,residual activity,[39],105%
same,residual activity,[40],100%
same,residual activity,[41],101%
same,residual activity,[42],95.6%
CC(C)c1nn(-c2c(Cl)cccc2Cl)c2nc(Cc3ccc(OCCO)cc3)nc(O)c12,residual activity,[1],98.5%
same,residual activity,[2],80.8%
same,residual activity,[3],91.3%
same,residual activity,[4],91.3%
same,residual activity,[5],73.1%
same,residual activity,[6],96.3%
same,residual activity,[7],105%
same,residual activity,[8],104%
same,residual activity,[9],107%
same,residual activity,[10],96.4%
same,residual activity,[11],89.2%
same,residual activity,[12],96.1%
same,residual activity,[13],96.9%
same,residual activity,[14],2.54%
same,residual activity,[15],90.7%
same,residual activity,[16],91.7%
same,residual activity,[17],81.1%
same,residual activity,[18],109%
same,residual activity,[19],103%
same,residual activity,[20],89.7%
same,residual activity,[21],86.7%
same,residual activity,[22],101%
same,residual activity,[23],100%
same,residual activity,[24],92.4%
same,residual activity,[25],86.6%
same,residual activity,[26],46.8%
same,residual activity,[27],93.1%
same,residual activity,[28],89%
same,residual activity,[29],81.2%
same,residual activity,[30],87.1%
same,residual activity,[31],96.6%
same,residual activity,[32],-1.2%
same,residual activity,[33],106%
same,residual activity,[34],102%
same,residual activity,[35],95.2%
same,residual activity,[36],88.3%
same,residual activity,[37],97.1%
same,residual activity,[38],98.9%
same,residual activity,[39],103%
same,residual activity,[40],91.3%
same,residual activity,[41],85.7%
same,residual activity,[42],109%
CCN(CC)CCCCN1c2ccccc2Oc2ccc(Cl)cc21,residual activity,[1],88.4%
same,residual activity,[2],88%
same,residual activity,[3],98.3%
same,residual activity,[4],110%
same,residual activity,[5],108%
same,residual activity,[6],110%
same,residual activity,[7],157%
same,residual activity,[8],104%
same,residual activity,[9],94.3%
same,residual activity,[10],94.7%
same,residual activity,[11],109%
same,residual activity,[12],99.6%
same,residual activity,[13],105%
same,residual activity,[14],91%
same,residual activity,[15],97.9%
same,residual activity,[16],90.9%
same,residual activity,[17],91.1%
same,residual activity,[18],92%
same,residual activity,[19],91.1%
same,residual activity,[20],87.7%
same,residual activity,[21],106%
same,residual activity,[22],105%
same,residual activity,[23],109%
same,residual activity,[24],101%
same,residual activity,[25],103%
same,residual activity,[26],98%
same,residual activity,[27],106%
same,residual activity,[28],99.8%
same,residual activity,[29],97%
same,residual activity,[30],95%
same,residual activity,[31],97.1%
same,residual activity,[32],96.8%
same,residual activity,[33],96.2%
same,residual activity,[34],91.9%
same,residual activity,[35],105%
same,residual activity,[36],99%
same,residual activity,[37],105%
same,residual activity,[38],103%
same,residual activity,[39],108%
same,residual activity,[40],110%
same,residual activity,[41],105%
same,residual activity,[42],115%
Cn1sc(=O)n(Cc2ccccc2)c1=O,residual activity,[1],101%
same,residual activity,[2],104%
same,residual activity,[3],102%
same,residual activity,[4],101%
same,residual activity,[5],94.5%
same,residual activity,[6],98%
same,residual activity,[7],117%
same,residual activity,[8],91.6%
same,residual activity,[9],101%
same,residual activity,[10],97.1%
same,residual activity,[11],98.1%
same,residual activity,[12],91%
same,residual activity,[13],101%
same,residual activity,[14],103%
same,residual activity,[15],100%
same,residual activity,[16],97.7%
same,residual activity,[17],86.6%
same,residual activity,[18],102%
same,residual activity,[19],102%
same,residual activity,[20],94.1%
same,residual activity,[21],95%
same,residual activity,[22],100%
same,residual activity,[23],93.7%
same,residual activity,[24],99.2%
same,residual activity,[25],105%
same,residual activity,[26],98.1%
same,residual activity,[27],92.9%
same,residual activity,[28],99.3%
same,residual activity,[29],99.1%
same,residual activity,[30],96.7%
same,residual activity,[31],98.1%
same,residual activity,[32],95.7%
same,residual activity,[33],112%
same,residual activity,[34],110%
same,residual activity,[35],95.2%
same,residual activity,[36],94%
same,residual activity,[37],100%
same,residual activity,[38],87.3%
same,residual activity,[39],99.5%
same,residual activity,[40],100%
same,residual activity,[41],98.9%
same,residual activity,[42],91.9%
